Results from ChEMBL document CHEMBL1201862, “PubChem BioAssay data set” (2004).
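Exposure lasted 48 hours, with cells grown in 96-well plates and compounds tested at five concentrations. Here, GI50 denotes the concentration required for 50% inhibition of growth.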 Calls of active or inactive are those of the source. No stated cut-off is given here; in the data, active = GI50 up to about 1.1 µM and inactive = higher.

Key:
Test in all cases: growth of human tumour cells (NCI), 48 h
CCRF-CEM = tested on: CCRF-CEM
SNB-75 = tested on: SNB-75
OVCAR-4 = tested on: OVCAR-4
NCI-H23 = tested on: NCI-H23
U-251 = tested on: U-251
SK-OV-3 = tested on: SK-OV-3
TK-10 = tested on: TK-10
SK-MEL-5 = tested on: SK-MEL-5
Malme-3M = tested on: Malme-3M
HOP-92 = tested on: HOP-92
HL-60 = tested on: HL-60
ACHN = tested on: ACHN
OVCAR-5 = tested on: OVCAR-5
UO-31 = tested on: UO-31
M14 = tested on: M14

Row | Compound | GI50 (CCRF-CEM) | GI50 (SNB-75) | GI50 (OVCAR-4) | GI50 (NCI-H23) | GI50 (U-251) | GI50 (SK-OV-3) | GI50 (TK-10) | GI50 (SK-MEL-5) | GI50 (Malme-3M) | GI50 (HOP-92) | GI50 (HL-60) | GI50 (ACHN) | GI50 (OVCAR-5) | GI50 (UO-31) | GI50 (M14)
1 | COc1ccc(-c2oc3c(OC)c(OC)c(OC)c(O)c3c(=O)c2OC)cc1O | 0.0135 µM (active) | 0.0443 µM (active) | 9.23 µM (inactive) | 0.254 µM (active) | 0.242 µM (active) | 0.139 µM (active) | 2.42 µM (inactive) | 0.113 µM (active) | 0.065 µM (active) | < 0.01 µM (active) | < 0.01 µM (active) | 0.0656 µM (active) | 5.4 µM (inactive) | 0.082 µM (active) | 0.0592 µM (active)
2 | COc1cc(/C=N/N=C(\N)NO)c(Cl)cc1O | > 100 µM (inactive) |  | 43.8 µM (inactive) | 35.5 µM (inactive) | > 100 µM (inactive) | 85.9 µM (inactive) |  | 51.5 µM (inactive) | 68.7 µM (inactive) | 4.97 µM (inactive) |  | 42.5 µM (inactive) | 46.7 µM (inactive) | 94 µM (inactive) | 
3 | CC1=C(/C=C/C2=CC(=C\C(=O)O)/CC(C3=C(C)CCCC3(C)C)C2)C(C)(C)CCC1 (stereo not drawn) |  | 14.6 µM (inactive) | 13.7 µM (inactive) | 13.9 µM (inactive) | 11.1 µM (inactive) | 13.7 µM (inactive) | 13.5 µM (inactive) | 14.8 µM (inactive) | 18.7 µM (inactive) | 11.2 µM (inactive) |  | 10.4 µM (inactive) | 16.4 µM (inactive) | 10.7 µM (inactive) | 14.8 µM (inactive)
4 | Oc1ccncc1-c1cnccc1O | > 100 µM (inactive) | > 100 µM (inactive) |  | > 100 µM (inactive) | > 100 µM (inactive) | > 100 µM (inactive) | > 100 µM (inactive) | > 100 µM (inactive) | > 100 µM (inactive) | > 100 µM (inactive) | > 100 µM (inactive) | > 100 µM (inactive) |  | > 100 µM (inactive) | > 100 µM (inactive)
5 | CC(=O)O[C@]12CCCCC1C1(O)C(O)CCCCC12 (stereo partly drawn) | > 100 µM (inactive) | > 100 µM (inactive) | > 100 µM (inactive) | > 100 µM (inactive) | > 100 µM (inactive) | > 100 µM (inactive) | > 100 µM (inactive) | > 100 µM (inactive) | > 100 µM (inactive) |  | > 100 µM (inactive) | 76 µM (inactive) |  | > 100 µM (inactive) | > 100 µM (inactive)
6 | C=C(COC(C)=O)CC(OC(C)=O)c1ccccc1 (stereo not drawn) | 68.4 µM (inactive) | > 100 µM (inactive) | > 100 µM (inactive) | > 100 µM (inactive) | > 100 µM (inactive) | > 100 µM (inactive) | > 100 µM (inactive) | > 100 µM (inactive) |  | > 100 µM (inactive) | > 100 µM (inactive) | > 100 µM (inactive) | > 100 µM (inactive) | > 100 µM (inactive) | > 100 µM (inactive)
7 | CCOC(=O)/C(=C/c1cc(OC)ccc1OC)CC(=O)O | > 31.6 µM (inactive) | > 100 µM (inactive) | > 100 µM (inactive) | > 100 µM (inactive) | > 100 µM (inactive) | > 100 µM (inactive) | > 100 µM (inactive) | > 100 µM (inactive) | > 31.6 µM (inactive) | > 100 µM (inactive) | > 31.6 µM (inactive) | > 100 µM (inactive) |  | > 100 µM (inactive) | > 100 µM (inactive)
8 | [O-][S+]1CSSC1 | 4.42 µM (inactive) | 27.7 µM (inactive) | 16.7 µM (inactive) | 28.7 µM (inactive) | 18.7 µM (inactive) | 24.3 µM (inactive) | 23.7 µM (inactive) | > 10 µM (inactive) | 36.7 µM (inactive) | 26.1 µM (inactive) | 2.56 µM (inactive) | 25.1 µM (inactive) | 16.8 µM (inactive) | 18.7 µM (inactive) | 22.5 µM (inactive)
9 | O=C1NC2(CCCC2)C2CCCCC12O (stereo not drawn) | > 100 µM (inactive) | > 100 µM (inactive) | > 100 µM (inactive) | > 100 µM (inactive) | > 100 µM (inactive) | > 100 µM (inactive) | > 100 µM (inactive) | > 100 µM (inactive) | > 100 µM (inactive) | > 100 µM (inactive) | > 100 µM (inactive) | > 100 µM (inactive) | > 100 µM (inactive) | > 100 µM (inactive) | > 100 µM (inactive)
10 | Cc1cc(C)cc(NC(=O)CCC(=O)C2CCC/C2=N\NC(=O)C(=O)NN)c1 (stereo not drawn) | > 100 µM (inactive) | > 100 µM (inactive) | > 100 µM (inactive) | > 100 µM (inactive) | > 100 µM (inactive) | > 100 µM (inactive) | > 100 µM (inactive) | > 100 µM (inactive) | > 100 µM (inactive) |  | > 100 µM (inactive) | > 100 µM (inactive) | > 100 µM (inactive) | > 100 µM (inactive) | > 100 µM (inactive)
11 | N#CC1=C(O)NC(O)=C(C#N)C1c1ccc(C2C(C#N)=C(O)NC(O)=C2C#N)cc1 | 45.3 µM (inactive) | > 100 µM (inactive) | > 100 µM (inactive) | > 100 µM (inactive) | > 100 µM (inactive) | > 100 µM (inactive) | > 100 µM (inactive) | > 100 µM (inactive) | > 100 µM (inactive) |  | 28.3 µM (inactive) | > 100 µM (inactive) |  | > 100 µM (inactive) | > 100 µM (inactive)
12 | Cc1ccc(S(=O)(=O)N(/N=C(\N)Oc2ccc(Cl)cc2)C(=N)Oc2ccc(Cl)cc2)cc1 | > 100 µM (inactive) | > 100 µM (inactive) | > 100 µM (inactive) | > 100 µM (inactive) | > 100 µM (inactive) | > 100 µM (inactive) | > 100 µM (inactive) | > 100 µM (inactive) | > 100 µM (inactive) | > 100 µM (inactive) | > 100 µM (inactive) | > 100 µM (inactive) | > 100 µM (inactive) | > 100 µM (inactive) | > 100 µM (inactive)
13 | c1cc(N(CCn2cccn2)CCn2cccn2)cc(N(CCn2cccn2)CCn2cccn2)c1 | > 100 µM (inactive) | > 100 µM (inactive) | > 100 µM (inactive) |  | > 100 µM (inactive) | > 100 µM (inactive) | > 100 µM (inactive) | > 100 µM (inactive) |  | > 100 µM (inactive) | > 100 µM (inactive) | > 100 µM (inactive) |  | > 100 µM (inactive) | > 100 µM (inactive)
14 | C#CCN(Cc1ccc2nc(-c3ccccc3)c(N)nc2c1)c1cc(OC)c(OC)c(OC)c1 | 17.9 µM (inactive) | 30.4 µM (inactive) | 27.9 µM (inactive) | 25.1 µM (inactive) | 37 µM (inactive) |  | 46.1 µM (inactive) | 11.9 µM (inactive) | 26.9 µM (inactive) |  | 17.9 µM (inactive) | 22.8 µM (inactive) | 48.5 µM (inactive) | 23.1 µM (inactive) | 25.5 µM (inactive)
15 | Cc1ccc(S(=O)(=O)c2ccc(C)cc2[N+](=O)[O-])c([N+](=O)[O-])c1 | > 100 µM (inactive) | 18.5 µM (inactive) | 89.9 µM (inactive) | > 100 µM (inactive) | > 100 µM (inactive) |  | > 100 µM (inactive) | > 100 µM (inactive) | > 100 µM (inactive) |  |  | 44.9 µM (inactive) | > 100 µM (inactive) | > 100 µM (inactive) | > 100 µM (inactive)
16 | O=C1CCC[C@]2(CCCC(=O)N2)C1 | > 100 µM (inactive) | 77.4 µM (inactive) | > 100 µM (inactive) | > 100 µM (inactive) | > 100 µM (inactive) | > 100 µM (inactive) | > 100 µM (inactive) | > 100 µM (inactive) | > 100 µM (inactive) | > 100 µM (inactive) | > 100 µM (inactive) | > 100 µM (inactive) | > 100 µM (inactive) | > 100 µM (inactive) | > 100 µM (inactive)
17 | O=C1NC(=S)NC(=O)C1=Cc1ccc([N+](=O)[O-])o1 | 23.9 µM (inactive) | 16.2 µM (inactive) | 17.3 µM (inactive) | 16.9 µM (inactive) | > 100 µM (inactive) | > 100 µM (inactive) | 61 µM (inactive) | 23.4 µM (inactive) | 14.7 µM (inactive) | 20.7 µM (inactive) | 27.1 µM (inactive) | 18.4 µM (inactive) | 20.3 µM (inactive) | 39.2 µM (inactive) | 15.7 µM (inactive)
18 | O=[N+]([O-])c1ccc(/C=C/c2csnn2)cc1 | > 100 µM (inactive) |  | > 100 µM (inactive) | > 100 µM (inactive) | > 100 µM (inactive) | > 100 µM (inactive) | > 100 µM (inactive) | > 100 µM (inactive) | > 100 µM (inactive) | 70.5 µM (inactive) | > 100 µM (inactive) | > 100 µM (inactive) | > 100 µM (inactive) | > 100 µM (inactive) | > 100 µM (inactive)
19 | CC1(C)CC(N2CCN(C3CC(C)(C)NC(C)(C)C3)CC2)CC(C)(C)N1 | > 100 µM (inactive) | > 100 µM (inactive) | > 100 µM (inactive) | > 100 µM (inactive) | > 100 µM (inactive) | > 100 µM (inactive) | > 100 µM (inactive) | > 100 µM (inactive) |  | > 100 µM (inactive) | > 100 µM (inactive) | > 100 µM (inactive) | > 100 µM (inactive) | > 100 µM (inactive) | > 100 µM (inactive)
20 | COc1cc2c3cc1Oc1c(OC)c(OC)cc4c1[C@@H](Cc1ccc(O)c(c1)Oc1ccc(cc1)C[C@@H]3N(C)CC2)N(C)CC4.c1ccccc1 | 17.5 µM (inactive) | 6.27 µM (inactive) |  | 24.1 µM (inactive) | 10.1 µM (inactive) |  | 17.8 µM (inactive) | 3.89 µM (inactive) | 17.2 µM (inactive) | 8.28 µM (inactive) | 10.2 µM (inactive) | 17.3 µM (inactive) | 30.6 µM (inactive) | 15.7 µM (inactive) | 4.61 µM (inactive)
